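Interpolation was linear, between the two tested concentrations surrounding the appropriate level; five concentrations were tested over 48 hours in 96-well plates. TGI denotes the concentration required for complete inhibition of growth.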
Assays:
Assay in all cases: growth of human tumour cells (NCI), 48 h
XF 498 CNS = test system: XF 498 CNS
KM20L2 colon = test system: KM20L2 colon
NCI-H460 lung = test system: NCI-H460 lung
MALME-3M melanoma = test system: MALME-3M melanoma
UACC-62 melanoma = test system: UACC-62 melanoma
OVCAR-8 ovarian = test system: OVCAR-8 ovarian
HOP-62 NSCLC = test system: HOP-62 NSCLC
OVCAR-3 ovarian = test system: OVCAR-3 ovarian
SK-MEL-2 melanoma = test system: SK-MEL-2 melanoma
SNB-78 CNS = test system: SNB-78 CNS
ACHN renal = test system: ACHN renal
SK-MEL-28 melanoma = test system: SK-MEL-28 melanoma
DLD-1 colon = test system: DLD-1 colon
LOX IMVI melanoma = test system: LOX IMVI melanoma
UO-31 renal = test system: UO-31 renal
SK-MEL-5 melanoma = test system: SK-MEL-5 melanoma
SN12C renal = test system: SN12C renal
OVCAR-4 ovarian = test system: OVCAR-4 ovarian
M14 melanoma = test system: M14 melanoma
NCI-H226 lung = test system: NCI-H226 lung
HCT-15 colon = test system: HCT-15 colon
EKVX NSCLC = test system: EKVX NSCLC
TK-10 renal = test system: TK-10 renal
SW-620 colon = test system: SW-620 colon
HOP-18 NSCLC = test system: HOP-18 NSCLC
NCI-H522 lung = test system: NCI-H522 lung
SNB-75 CNS = test system: SNB-75 CNS
SNB-19 CNS = test system: SNB-19 CNS
RXF 393 renal = test system: RXF 393 renal
COLO 205 colon = test system: COLO 205 colon
KM12 colon = test system: KM12 colon
RXF-631 renal = test system: RXF-631 renal
HT29 colon = test system: HT29 colon
HL-60(TB) leukemia = test system: HL-60(TB) leukemia
UACC-257 melanoma = test system: UACC-257 melanoma
786-0 renal = test system: 786-0 renal
DMS 114 small cell lung = test system: DMS 114 small cell lung
HOP-92 NSCLC = test system: HOP-92 NSCLC
CAKI-1 renal = test system: CAKI-1 renal
IGROV1 ovarian = test system: IGROV1 ovarian
MOLT-4 leukemia = test system: MOLT-4 leukemia
NCI-H23 lung = test system: NCI-H23 lung
M19-MEL melanoma = test system: M19-MEL melanoma
A549 NSCLC = test system: A549 NSCLC
DMS 273 small cell lung = test system: DMS 273 small cell lung
OVCAR-5 ovarian = test system: OVCAR-5 ovarian
SF-268 CNS = test system: SF-268 CNS
HCC-2998 colon = test system: HCC-2998 colon
SR leukemia = test system: SR leukemia
HCT-116 colon = test system: HCT-116 colon
SF-295 CNS = test system: SF-295 CNS
SK-OV-3 ovarian = test system: SK-OV-3 ovarian
LXFL 529 NSCLC = test system: LXFL 529 NSCLC
A498 renal = test system: A498 renal
RPMI-8226 leukemia = test system: RPMI-8226 leukemia
K-562 leukemia = test system: K-562 leukemia
U251 CNS = test system: U251 CNS
SF-539 CNS = test system: SF-539 CNS

`N#CCCN(c1ccc(C=Nc2ccccc2Cl)cc1)S(=O)(=O)c1ccccc1` was tested. Which TGI (XF 498 CNS) did it give?
Its TGI is > 100 µM.

What about the TGI (KM20L2 colon) of the same compound?
The TGI was > 100 µM.

What about the TGI (NCI-H460 lung) of the same compound?
Its TGI is > 100 µM.

What about the TGI (MALME-3M melanoma) of the same compound?
The TGI was > 100 µM.

What about the TGI (UACC-62 melanoma) of the same compound?
The TGI was > 100 µM.

What about the TGI (OVCAR-8 ovarian) of the same compound?
Its TGI is > 100 µM.

And the TGI (HOP-62 NSCLC)?
Its TGI is > 100 µM.

What about the TGI (OVCAR-3 ovarian) of the same compound?
Its TGI is > 100 µM.

What about the TGI (SK-MEL-2 melanoma) of the same compound?
The TGI was > 100 µM.

What about the TGI (SNB-78 CNS) of the same compound?
Its TGI is > 100 µM.

And the TGI (ACHN renal)?
Its TGI is > 100 µM.

What about the TGI (SK-MEL-28 melanoma) of the same compound?
The TGI was > 100 µM.

What about the TGI (DLD-1 colon) of the same compound?
Its TGI is > 100 µM.

What about the TGI (LOX IMVI melanoma) of the same compound?
The TGI was > 100 µM.

What about the TGI (UO-31 renal) of the same compound?
Its TGI is > 100 µM.

What about the TGI (SK-MEL-5 melanoma) of the same compound?
The TGI was > 100 µM.

What about the TGI (SN12C renal) of the same compound?
The TGI was > 100 µM.

What about the TGI (OVCAR-4 ovarian) of the same compound?
Its TGI is > 100 µM.

And the TGI (M14 melanoma)?
The TGI was > 100 µM.

And the TGI (NCI-H226 lung)?
The TGI was > 100 µM.

What about the TGI (HCT-15 colon) of the same compound?
The TGI was > 100 µM.

And the TGI (EKVX NSCLC)?
The TGI was > 100 µM.

What about the TGI (TK-10 renal) of the same compound?
Its TGI is > 100 µM.

And the TGI (SW-620 colon)?
Its TGI is > 100 µM.

What about the TGI (HOP-18 NSCLC) of the same compound?
The TGI was > 100 µM.

And the TGI (NCI-H522 lung)?
Its TGI is > 100 µM.

And the TGI (SNB-75 CNS)?
The TGI was > 100 µM.

What about the TGI (SNB-19 CNS) of the same compound?
The TGI was > 100 µM.

And the TGI (RXF 393 renal)?
Its TGI is > 100 µM.

And the TGI (COLO 205 colon)?
Its TGI is > 100 µM.

What about the TGI (KM12 colon) of the same compound?
Its TGI is > 100 µM.

What about the TGI (RXF-631 renal) of the same compound?
The TGI was > 100 µM.

What about the TGI (HT29 colon) of the same compound?
The TGI was > 100 µM.

What about the TGI (HL-60(TB) leukemia) of the same compound?
Its TGI is > 100 µM.

And the TGI (UACC-257 melanoma)?
The TGI was > 100 µM.

What about the TGI (786-0 renal) of the same compound?
Its TGI is > 100 µM.

And the TGI (DMS 114 small cell lung)?
Its TGI is > 100 µM.

And the TGI (HOP-92 NSCLC)?
Its TGI is > 100 µM.

What about the TGI (CAKI-1 renal) of the same compound?
Its TGI is > 100 µM.

What about the TGI (IGROV1 ovarian) of the same compound?
Its TGI is > 100 µM.

And the TGI (MOLT-4 leukemia)?
Its TGI is > 100 µM.

And the TGI (NCI-H23 lung)?
Its TGI is > 100 µM.

What about the TGI (M19-MEL melanoma) of the same compound?
The TGI was > 100 µM.

And the TGI (A549 NSCLC)?
Its TGI is > 100 µM.

And the TGI (DMS 273 small cell lung)?
The TGI was > 100 µM.

What about the TGI (OVCAR-5 ovarian) of the same compound?
Its TGI is > 100 µM.

What about the TGI (SF-268 CNS) of the same compound?
The TGI was > 100 µM.

And the TGI (HCC-2998 colon)?
The TGI was > 100 µM.

And the TGI (SR leukemia)?
The TGI was > 100 µM.

What about the TGI (HCT-116 colon) of the same compound?
Its TGI is > 100 µM.

What about the TGI (SF-295 CNS) of the same compound?
Its TGI is > 100 µM.

What about the TGI (SK-OV-3 ovarian) of the same compound?
Its TGI is > 100 µM.

And the TGI (LXFL 529 NSCLC)?
The TGI was > 100 µM.

And the TGI (A498 renal)?
Its TGI is > 100 µM.

What about the TGI (RPMI-8226 leukemia) of the same compound?
The TGI was > 100 µM.

And the TGI (K-562 leukemia)?
The TGI was > 100 µM.

What about the TGI (U251 CNS) of the same compound?
Its TGI is > 100 µM.

And the TGI (SF-539 CNS)?
The TGI was > 100 µM.

With `C[n+]1c2ccccc2c(NC(CS)C(=O)O)c2ccccc21` (centres undefined) as the compound, how does the TGI (XF 498 CNS) read?
The TGI was 33.9 µM.

What about the TGI (KM20L2 colon) of the same compound?
Its TGI is > 100 µM.

What about the TGI (NCI-H460 lung) of the same compound?
The TGI was > 100 µM.

And the TGI (MALME-3M melanoma)?
The TGI was > 100 µM.

And the TGI (UACC-62 melanoma)?
Its TGI is 34.2 µM.

What about the TGI (OVCAR-8 ovarian) of the same compound?
The TGI was 61.2 µM.

What about the TGI (HOP-62 NSCLC) of the same compound?
The TGI was 73.5 µM.

And the TGI (OVCAR-3 ovarian)?
Its TGI is 71.9 µM.

What about the TGI (SK-MEL-2 melanoma) of the same compound?
The TGI was 89.7 µM.

And the TGI (SNB-78 CNS)?
The TGI was > 100 µM.

And the TGI (ACHN renal)?
The TGI was > 100 µM.

What about the TGI (DLD-1 colon) of the same compound?
The TGI was > 100 µM.

What about the TGI (UO-31 renal) of the same compound?
The TGI was 66.6 µM.

What about the TGI (SK-MEL-5 melanoma) of the same compound?
Its TGI is 44.6 µM.

And the TGI (SN12C renal)?
The TGI was > 100 µM.

And the TGI (OVCAR-4 ovarian)?
Its TGI is > 100 µM.

What about the TGI (M14 melanoma) of the same compound?
Its TGI is > 100 µM.

And the TGI (NCI-H226 lung)?
The TGI was > 100 µM.

And the TGI (HCT-15 colon)?
The TGI was > 100 µM.

And the TGI (EKVX NSCLC)?
The TGI was > 100 µM.

And the TGI (TK-10 renal)?
Its TGI is > 100 µM.

And the TGI (SW-620 colon)?
Its TGI is > 100 µM.

And the TGI (HOP-18 NSCLC)?
The TGI was > 100 µM.

And the TGI (NCI-H522 lung)?
The TGI was 42.3 µM.

And the TGI (SNB-75 CNS)?
Its TGI is 73.5 µM.

What about the TGI (SNB-19 CNS) of the same compound?
Its TGI is > 100 µM.

And the TGI (RXF 393 renal)?
The TGI was 60.7 µM.

What about the TGI (COLO 205 colon) of the same compound?
Its TGI is > 100 µM.

And the TGI (KM12 colon)?
Its TGI is 64.9 µM.

And the TGI (RXF-631 renal)?
Its TGI is > 100 µM.

What about the TGI (HT29 colon) of the same compound?
The TGI was > 100 µM.

And the TGI (HL-60(TB) leukemia)?
The TGI was 44.8 µM.

And the TGI (UACC-257 melanoma)?
Its TGI is 92.9 µM.

What about the TGI (786-0 renal) of the same compound?
Its TGI is > 100 µM.

And the TGI (DMS 114 small cell lung)?
Its TGI is 95.8 µM.

And the TGI (HOP-92 NSCLC)?
The TGI was 60.2 µM.

And the TGI (CAKI-1 renal)?
The TGI was 97.2 µM.

What about the TGI (IGROV1 ovarian) of the same compound?
Its TGI is > 100 µM.

And the TGI (MOLT-4 leukemia)?
The TGI was 38.6 µM.

And the TGI (NCI-H23 lung)?
The TGI was > 100 µM.

And the TGI (M19-MEL melanoma)?
The TGI was > 100 µM.

What about the TGI (A549 NSCLC) of the same compound?
Its TGI is 70.1 µM.

What about the TGI (DMS 273 small cell lung) of the same compound?
Its TGI is 89.9 µM.

And the TGI (OVCAR-5 ovarian)?
Its TGI is > 100 µM.

And the TGI (SF-268 CNS)?
Its TGI is 70.2 µM.

What about the TGI (HCC-2998 colon) of the same compound?
Its TGI is > 100 µM.

And the TGI (SR leukemia)?
Its TGI is 39.4 µM.

What about the TGI (HCT-116 colon) of the same compound?
Its TGI is 30.7 µM.

What about the TGI (SF-295 CNS) of the same compound?
The TGI was 77.7 µM.

What about the TGI (SK-OV-3 ovarian) of the same compound?
Its TGI is 61 µM.

And the TGI (LXFL 529 NSCLC)?
The TGI was > 100 µM.

And the TGI (A498 renal)?
Its TGI is 53 µM.

And the TGI (RPMI-8226 leukemia)?
The TGI was 53.9 µM.

And the TGI (K-562 leukemia)?
The TGI was > 100 µM.

And the TGI (U251 CNS)?
The TGI was 89.4 µM.

What about the TGI (SF-539 CNS) of the same compound?
The TGI was 44 µM.
